Literature values, collected in US12377071B2, “Methods of treating conditions related to the S1P1 receptor” (Arena Pharmaceuticals, Inc., priority 2015, dated 2025).

Settings: clinical trials; cited from earlier work

For `CCCCCCCCc1ccc(CCC(N)(CO)CO)cc1` [FTY720, fingolimod], the Adverse event is listed as “transient asymptomatic bradycardia”.
